Measurements taken from the NIST ThermoML archive (doi:10.1016/j.fluid.2013.09.056).
± gives the expanded uncertainty stated by the source.

Details: Liquid, Closed cell (Static) method

Row | SMILES | vapor or sublimation pressure (283.15 K) [kPa] | vapor or sublimation pressure (293.15 K) [kPa] | vapor or sublimation pressure (303.15 K) [kPa] | vapor or sublimation pressure (313.15 K) [kPa] | vapor or sublimation pressure (323.15 K) [kPa]
1 | C=C(F)C(F)(F)F [2,3,3,3-tetrafluoro-1-propene] | 436.5 ± 7 | 591 ± 7.1 | 780.5 ± 7.1 | 1015.6 ± 7.2 | 1300.7 ± 7.2
2 | CC(F)(F)F [1,1,1-trifluoroethane] | 838.6 ± 7.1 | 1107.9 ± 7.2 | 1435.2 ± 7.3 | 1834 ± 7.5 | 2309.7 ± 7.8
3 | FC(C(F)(F)F)C(F)(F)F [1,1,1,2,3,3,3-heptafluoropropane] | 278.9 ± 7 | 388 ± 7 | 524.5 ± 7 | 699 ± 7.1 | 912.4 ± 7.1
4 | FCC(F)(F)F [1,1,1,2-tetrafluoroethane] | 414 ± 7 | 571.5 ± 7 | 767 ± 7.1 | 1013 ± 7.2 | 1314.7 ± 7.3
